Reference: the OPERA property sets (Mansouri et al. 2018)

SMILES	logP
CC(=O)Nc1ccc(OCC(O)CNC(C)C)c(C(C)=O)c1 (configuration not stated)	0.94
CC(C)NCC(O)COc1ccccc1C1CC1 (configuration not stated)	3.07
Cc1cc2c(OCC(O)CNC(C)C)cccc2[nH]1 (configuration not stated)	2.3
Cc1ccccc1OCC(O)CNCC(O)COc1ccccc1C (configuration not stated)	3.67
COc1ccccc1OCC(O)CNC(C)C (configuration not stated)	1.69
CC(=O)Nc1ccc(OCC(O)CNCC(O)COc2ccccc2)cc1 (configuration not stated)	1.39
CC(C)NCC(O)COc1ccc(COCCOC(C)C)cc1 (configuration not stated)	1.87

More lines, now with the values ahead:

logP	SMILES
3.7	CC(C)NC[C@H](O)COc1ccc(OCCOCCc2ccc(F)cc2)cc1
2.02	CC(=O)c1cc2cccc(OCC(O)CNC(C)C)c2o1 (configuration not stated)
2.32	C#CCOc1ccccc1OCC(O)CNC(C)(C)C (configuration not stated)
2.81	CC(C)NCC(O)COc1ccc(CCOCC2CC2)cc1 (configuration not stated)
1.36	CNC(=O)COc1ccccc1OCC(O)CNC(C)(C)C (configuration not stated)
